Laboratory results: patent US20070254952A1, “CANNABINOID RECEPTOR MODULATORS” (priority 2006, published 2007)
pKi: −log10 of the molar value.

Assays:
[1] = target: T1, CB1 receptor (Homo sapiens, UniProt P21554); assay: Competition binding assay for cannabinoid CB1 affinity (3H-CP55,940 displacement, membranes); conditions: membranes from cells expressing the receptor, 0.5 nM 3H-CP55,940; Ki by Cheng and Prusoff
T1 construct: purchased
Method: (§1) Competition binding assays for cannabinoid CB1 and CB2 affinity were performed by incubating commercially purchased membranes prepared from cells expressing each receptor subtype (8 μg pro) with 0.5 nM ^3H-CP55,940, a non-selective cannabinoid agonist, along with concentrations of drug ranging from 0.0001-3 μM in Buffer A (5 mM MgCl2, 2.5 mM EDTA and […] BSA). Non-specific binding was defined in the presence of 10 μM CP55,940. For saturation studies, concentrations of ^3H-CP55,940 ranging from 0.1-5 nM were incubated with membranes in the presence and absence of 10 μM CP55,940. Assays were terminated after incubation for 1½ hours by rapid filtration onto 0.3% polyethylenamine treated GF/C filterplates using a BRANDEL cell harvester. The plates were dried and MICROSCINT scintillation cocktail was added, after which the bound radioactivity was quantified using a TOPCOUNT scintillation counter.
(§2) The dissociation constant (Kd) of ^3H-CP55,940 at the CB1 and CB2 receptor were determined by plotting specific binding at each concentration of radioligand, and analysis by non-linear regression. For competition studies, the concentration of each drug that inhibited 50 percent of ^3H-CP55,940 binding (IC50) was determined by non-linear regression analysis of the radioligand displacement curves. Affinity constants (Ki) were calculated using the equation derived by Cheng and Prusoff (1973), defined as: IC50/1+[conc. ligand/Kd].

[2] = target: T2, CB2 receptor (Homo sapiens, UniProt P34972); assay: Competition binding assay for cannabinoid CB2 affinity (3H-CP55,940 displacement, membranes); conditions: membranes from cells expressing the receptor, 0.5 nM 3H-CP55,940; Ki by Cheng and Prusoff
T2 construct: purchased
Method: as §1, §2

T1 sequence (P21554 whole entry): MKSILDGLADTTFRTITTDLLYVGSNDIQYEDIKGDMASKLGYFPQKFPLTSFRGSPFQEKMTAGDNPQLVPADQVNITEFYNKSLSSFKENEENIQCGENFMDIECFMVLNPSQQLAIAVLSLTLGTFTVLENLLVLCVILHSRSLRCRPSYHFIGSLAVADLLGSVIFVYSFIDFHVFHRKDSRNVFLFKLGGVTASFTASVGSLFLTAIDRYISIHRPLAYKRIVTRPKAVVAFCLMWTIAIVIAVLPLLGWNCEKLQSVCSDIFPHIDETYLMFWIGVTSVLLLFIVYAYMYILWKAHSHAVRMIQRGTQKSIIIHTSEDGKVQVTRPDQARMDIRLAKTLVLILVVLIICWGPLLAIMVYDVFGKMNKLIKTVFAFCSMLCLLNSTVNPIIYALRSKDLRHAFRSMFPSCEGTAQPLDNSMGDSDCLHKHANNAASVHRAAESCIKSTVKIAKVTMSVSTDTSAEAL
T2 sequence (P34972 whole entry): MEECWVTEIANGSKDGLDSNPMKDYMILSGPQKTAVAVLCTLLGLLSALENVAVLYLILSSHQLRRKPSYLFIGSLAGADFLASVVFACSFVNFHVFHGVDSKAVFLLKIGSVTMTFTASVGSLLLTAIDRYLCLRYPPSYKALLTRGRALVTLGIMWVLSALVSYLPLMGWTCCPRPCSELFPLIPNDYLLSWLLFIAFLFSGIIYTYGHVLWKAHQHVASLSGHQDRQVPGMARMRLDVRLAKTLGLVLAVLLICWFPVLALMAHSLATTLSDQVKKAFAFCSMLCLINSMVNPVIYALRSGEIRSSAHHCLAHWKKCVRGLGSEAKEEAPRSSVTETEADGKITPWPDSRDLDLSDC

Structure (SMILES) | pKi [1] | pKi [2]
N#Cc1ccc(NC[C@@H]2C[C@H](c3ccc(Cl)cc3)[C@H](c3ccc(Cl)cc3Cl)C2)cc1 [Compound 15] | 9.00 | < 5.82
N#Cc1ccc(CNC[C@@H]2C[C@H](c3ccc(Cl)cc3)[C@H](c3ccc(Cl)cc3Cl)C2)cc1 [Compound 14] | 7.90 | < 5.74
N#Cc1ccc(NC[C@H]2C[C@H](c3ccc(Cl)cc3)[C@H](c3ccc(Cl)cc3Cl)C2)cc1 [Compound 16] | < 5.82 | < 5.82
Fc1ccc(OC[C@@H]2C[C@H](c3ccc(Cl)cc3)[C@H](c3ccc(Cl)cc3Cl)C2)cc1F [Compound 17] | 7.90 | < 5.74
N#Cc1ccc(OC[C@@H]2C[C@H](c3ccc(Cl)cc3)[C@H](c3ccc(Cl)cc3Cl)C2)cc1 [Compound 18] | 8.73 | < 5.82
